From patent US8946234B2, “Halogen-substituted compounds” (Bayer CropScience AG, priority 2008, dated 2015) come the findings set out here.

One series can be described thus: physchem. In kind it is physicochemical.
Settings: not given
The method, then: ^a) Note regarding the determination of the log P values and mass detection: The log P values given were determined in accordance with EEC Directive 79/831 Annex V.A8 by HPLC (High Performance Liquid Chromatography) on a phase inversion column (C18). Agilent 1100 LC system; 50*4.6 Zorbax Eclipse Plus C18 1.8 micron; eluent A: acetonitrile (0.1% formic acid); eluent B: water (0.09% formic acid); linear gradient from 10% acetonitrile to 95% acetonitrile in 4.25 min, then 95% acetonitrile for a further 1.25 min; oven temperature 55° C.; flow: 2.0 ml/min. The mass detection is carried out via an Agilend MSD system.
Take `O=C(NCc1ccccc1)c1cc(NC(=O)c2cnc(C(F)(F)F)nc2C(F)(F)F)ccc1Cl` [Ib-6]: the logP is listed as 3.39^a). Same read-out and setting: next, `O=C(NC1CC1)c1cc(NC(=O)c2cnc(C(F)(F)C(F)(F)F)nc2C(F)(F)F)ccc1Cl` [Ib-7]: 3.20^a).

Regarding `Cc1nc(C(F)(F)C(F)(F)F)nc(C)c1C(=O)Nc1ccc(Cl)c(C(=O)NC2CC2)c1` [Ib-8], the logP was 2.82^a). On the same count and under the same terms, next, `O=C(NCC(F)(F)F)c1cc(NC(=O)c2cnc(C(F)(F)C(F)(F)F)nc2C(F)(F)F)ccc1Cl` [Ib-9]: 3.53^a); `O=C(NCC=CCl)c1cc(NC(=O)c2cnc(C(F)(F)C(F)(F)F)nc2C(F)(F)F)ccc1Cl` [Ib-10]: 3.59^a). Still for that read-out and setting: next, `O=C(NCc1ccccc1)c1cc(NC(=O)c2cnc(C(F)(F)C(F)(F)F)nc2C(F)(F)F)ccc1Cl` [Ib-11]: 3.78^a). On the same count and under the same terms, as for `Cc1nc(C(F)(F)C(F)(F)F)nc(C)c1C(=O)Nc1ccc(Cl)c(C(=O)NCC(F)(F)F)c1` [Ib-12], the figure is 3.22^a). With `Cc1nc(C(F)(F)C(F)(F)F)nc(C)c1C(=O)Nc1ccc(Cl)c(C(=O)NCC=CCl)c1` [Ib-13], the logP is on record as 3.26^a).

With `Cc1nc(C(F)(F)C(F)(F)F)nc(C)c1C(=O)Nc1ccc(Cl)c(C(=O)NCc2ccccc2)c1` [Ib-14], the logP is 3.49^a).

For `O=C(NC1CC1)c1cc(NC(=O)c2cnc(C(F)(F)C(F)(F)C(F)(F)F)nc2C(F)(F)F)ccc1Cl` [Ib-15], the logP is given as 3.56^a).

Consider `O=C(NCC(F)(F)F)c1cc(NC(=O)c2cnc(C(F)(F)C(F)(F)C(F)(F)F)nc2C(F)(F)F)ccc1Cl` [Ib-16], for which the logP is 3.88^a). The same measure, in the same setting: next, `O=C(NCC=CCl)c1cc(NC(=O)c2cnc(C(F)(F)C(F)(F)C(F)(F)F)nc2C(F)(F)F)ccc1Cl` [Ib-17]: 3.92^a). On the same count and under the same terms, as for `O=C(NCc1ccccc1)c1cc(NC(=O)c2cnc(C(F)(F)C(F)(F)C(F)(F)F)nc2C(F)(F)F)ccc1Cl` [Ib-18], the figure is 4.13^a); as for `Cc1nc(C(F)(F)F)ncc1C(=O)Nc1ccc(Cl)c(C(=O)NC2CC2)c1` [Ib-19], 2.24v. Still for that read-out and setting: next, `Cc1nc(C(F)(F)F)ncc1C(=O)Nc1ccc(Cl)c(C(=O)NCC(F)(F)F)c1` [Ib-20]: 2.65^a).

As for `Cc1nc(C(F)(F)F)ncc1C(=O)Nc1ccc(Cl)c(C(=O)NCC=CCl)c1` [Ib-21], the logP is reported as 2.69^a).

Regarding `Cc1nc(C(F)(F)F)ncc1C(=O)Nc1ccc(Cl)c(C(=O)NCc2ccccc2)c1` [Ib-22], the logP was 2.94^a). `Cc1nc(C(F)(F)C(F)(F)F)ncc1C(=O)Nc1ccc(Cl)c(C(=O)NC2CC2)c1` [Ib-23]: the logP is reported as 2.76^a). Same read-out and setting: as for `Cc1nc(C(F)(F)C(F)(F)F)ncc1C(=O)Nc1ccc(Cl)c(C(=O)NCC(F)(F)F)c1` [Ib-24], the figure is 3.16^a). As to `Cc1nc(C(F)(F)C(F)(F)F)ncc1C(=O)Nc1ccc(Cl)c(C(=O)NCC=CCl)c1` [Ib-25], the logP is recorded as 3.2^a). Same read-out and setting: as for `Cc1nc(C(F)(F)C(F)(F)F)ncc1C(=O)Nc1ccc(Cl)c(C(=O)NCc2ccccc2)c1` [Ib-26], the figure is 3.43^a); as for `O=C(NCC(F)(F)F)c1cc(NC(=O)c2cnc(C(F)(F)C(F)(F)F)nc2C(F)F)ccc1Cl` [Ib-28], 3.27^a). On the same count and under the same terms, next, `O=C(NCc1ccccc1)c1cc(NC(=O)c2cnc(C(F)(F)C(F)(F)F)nc2C(F)F)ccc1Cl` [Ib-29]: 3.51^a). The same measure, in the same setting: as for `O=C(NC1CC1)c1cc(NC(=O)c2cnc(C(F)(F)C(F)(F)F)nc2C2CC2)ccc1Cl` [Ib-30], the figure is 3.28^a). For `O=C(NCC(F)(F)F)c1cc(NC(=O)c2cnc(C(F)(F)C(F)(F)F)nc2C2CC2)ccc1Cl` [Ib-31], the logP is listed as 3.65^a). Still for that read-out and setting: next, `O=C(NCC=CCl)c1cc(NC(=O)c2cnc(C(F)(F)C(F)(F)F)nc2C(F)F)ccc1Cl` [Ib-32]: 3.29^a); `O=C(NC1CC1)c1cc(NC(=O)c2cnc(C(F)(F)C(F)(F)F)nc2C(F)(F)C(F)(F)F)ccc1Cl` [Ib-33]: 3.64^a). Still for that read-out and setting: next, `O=C(NCC(F)(F)F)c1cc(NC(=O)c2cnc(C(F)(F)C(F)(F)F)nc2C(F)(F)C(F)(F)F)ccc1Cl` [Ib-34]: 3.94^a); `O=C(NCc1ccccc1)c1cc(NC(=O)c2cnc(C(F)(F)C(F)(F)F)nc2C(F)(F)C(F)(F)F)ccc1Cl` [Ib-35]: 4.20^a). For `O=C(Nc1cc(Br)c(Cl)c(C(=O)NC2CC2)c1)c1cnc(C(F)(F)C(F)(F)F)nc1C(F)(F)F` [Ib-36], the logP is reported as 3.62^a).

For `CC(NC(=O)c1cc(NC(=O)c2cnc(C(F)(F)C(F)(F)F)nc2C(F)(F)F)ccc1Cl)C1CC1` (centres unmarked) [Ib-37], the logP is 3.76^a). For the compound `CN(C(=O)c1cnc(C(F)(F)C(F)(F)F)nc1C(F)(F)F)c1ccc(Cl)c(C(=O)NC2CC2)c1` [Ib-38], the logP is 3.23^a).

As to `O=C(NC1CC1)c1cc(NC(=O)c2nccc(C(F)(F)F)c2Cl)ccc1Cl` [Ie-1], the logP was 2.48^a). Take `CC(C)NC(=O)c1cc(NC(=O)c2nccc(C(F)(F)F)c2Cl)ccc1Cl` [Ie-2]: the logP is reported as 2.72^a). For the compound `O=C(NCC(F)(F)F)c1cc(NC(=O)c2nccc(C(F)(F)F)c2Cl)ccc1Cl` [Ie-3], the logP was 2.88^a). With `O=C(NCC=CCl)c1cc(NC(=O)c2nccc(C(F)(F)F)c2Cl)ccc1Cl` [Ie-4], the logP was 2.92^a). Regarding `O=C(NCc1ccccc1)c1cc(NC(=O)c2nccc(C(F)(F)F)c2Cl)ccc1Cl` [Ie-5], the logP was 3.16^a).

For the compound `CC(C)NC(=O)c1cc(NC(=O)c2ncc(C(F)(F)F)cc2Cl)ccc1Cl` [Ii-2], the logP is given as 2.73^a). As for `O=C(NCC(F)(F)F)c1cc(NC(=O)c2ncc(C(F)(F)F)cc2Cl)ccc1Cl` [Ii-3], the logP is 2.86^a).

Consider `O=C(NCC=CCl)c1cc(NC(=O)c2ncc(C(F)(F)F)cc2Cl)ccc1Cl` [Ii-4], for which the logP is reported as 2.93^a).

As for `O=C(NCc1ccccc1)c1cc(NC(=O)c2ncc(C(F)(F)F)cc2Cl)ccc1Cl` [Ii-5], the logP is on record as 3.17^a).

Consider `CC(Oc1cc(C(F)(F)F)c(C(=O)Nc2ccc(Cl)c(C(=O)NC3CC3)c2)cn1)C(F)(F)F` (centres unmarked) [Ij-2], for which the logP is listed as 3.32^a).

Regarding `O=C(NC1CC1)c1cc(NC(=O)c2cnc(OCC(F)(F)C(F)(F)F)cc2C(F)(F)F)ccc1Cl` [Ij-3], the logP was 3.44^a). On the same count and under the same terms, as for `Cn1nc(C(F)(F)C(F)(F)F)c(C(F)(F)F)c1C(=O)Nc1cc(Br)c(Cl)c(C(=O)NC2CC2)c1` [Ik-7], the figure is 3.81^a); as for `CC(NC(=O)c1cc(NC(=O)c2c(Br)c(C(F)(F)C(F)(F)F)nn2C)ccc1Cl)C(F)(F)F` (centres unmarked) [Ik-11], 2.00^a). Still for that read-out and setting: next, `CC(NC(=O)c1cc(NC(=O)c2c(Br)c(C(F)(F)C(F)(F)F)nn2C)ccc1Cl)C1CC1` (centres unmarked) [Ik-12]: 3.84^a); `Cn1nc(C(F)(F)C(F)(F)F)c(C(F)(F)F)c1C(=O)Nc1cccc(C(=O)NC2CC2)c1` [Ik-13]: 3.15^a).

For `Cn1nc(C(F)(F)C(F)(F)F)c(C(F)(F)F)c1C(=O)Nc1cccc(C(=O)NCc2ccccc2)c1` [Ik-14], the logP was 3.77^a). Same read-out and setting: next, `Cn1nc(C(F)(Cl)C(F)(F)F)c(Br)c1C(=O)Nc1ccc(Cl)c(C(=O)NC2CC2)c1` (centres unmarked) [Ik-16]: 3.35^a). Turning to `Cn1nc(C(F)(F)C(F)(F)F)cc1C(=O)Nc1ccc(Cl)c(C(=O)NC2CC2)c1` [Ik-17], the logP is reported as 2.94^a). Still for that read-out and setting: as for `Cn1nc(C(F)(F)F)c(Cl)c1C(=O)Nc1ccc(Cl)c(C(=O)NC2CC2)c1` [Ik-18], the figure is 2.77^a). Regarding `Cn1nc(C(F)(F)F)c(Cl)c1C(=O)Nc1ccc(Cl)c(C(=O)NCC=CCl)c1` [Ik-19], the logP was 3.22^a).

Consider `Cn1nc(C(F)(F)F)c(Cl)c1C(=O)Nc1ccc(Cl)c(C(=O)NCc2ccccc2)c1` [Ik-20], for which the logP is on record as 3.46^a). Still for that read-out and setting: next, `Cn1nc(C(F)(F)F)c(Br)c1C(=O)Nc1ccc(Cl)c(C(=O)NC2CC2)c1` [Ik-21]: 2.75^a). Still for that read-out and setting: next, `Cn1nc(C(F)(F)F)c(Br)c1C(=O)Nc1ccc(Cl)c(C(=O)NCC=CCl)c1` [Ik-22]: 3.20^a). For the compound `Cn1nc(C(F)(F)F)c(Br)c1C(=O)Nc1ccc(Cl)c(C(=O)NCc2ccccc2)c1` [Ik-23], the logP was 3.44^a). On the same count and under the same terms, as for `Cn1nc(C(F)(F)C(F)(F)F)c(C(F)(F)F)c1C(=O)Nc1ccc(Cl)c(C(=O)NS(C)(=O)=O)c1` [Ik-24], the figure is 3.13^a). As to `Cn1nc(C(F)(F)C(F)(F)F)c(C(F)(F)F)c1C(=O)Nc1ccc(OC(F)F)c(C(=O)NC2CC2)c1` [Ik-25], the logP is recorded as 3.49^a).

For `Cn1nc(C(F)(F)C(F)(F)F)c(Br)c1C(=O)Nc1ccc(Cl)c(C(=O)NC2CC2)c1` [Ik-26], the logP is reported as 3.22^a). As to `CC(C)NC(=O)c1cc(NC(=O)c2c(Br)c(C(F)(F)C(F)(F)F)nn2C)ccc1Cl` [Ik-27], the logP is reported as 3.49^a). Take `Cn1nc(C(F)(F)C(F)(F)F)c(Br)c1C(=O)Nc1ccc(Cl)c(C(=O)NCC=CCl)c1` [Ik-28]: the logP is recorded as 3.64^a). As for `Cn1nc(C(F)(F)F)cc1C(=O)Nc1ccc(Cl)c(C(=O)NC2CC2)c1` [Ik-71], the logP is reported as 2.48^a).

Still in this series, the particulars now being: HPLC phase inversion (reversed-phase) C18 column, HPLC method a), eluent acetonitrile/water with formic acid; read-out: logP.
In the case of `O=C(NC1CC1)c1cc(NC(=O)c2ncc(OCC(F)(F)F)cc2C(F)(F)F)ccc1Cl` [Ii-7, N-[4-Chloro-3-(cyclopropylcarbamoyl)phenyl]-5-(2,2,2-trifluoroethoxy)-3-(trifluoromethyl)pyridine-2-carboxamide], the chromatographic logP turned out to be 2.9. Same read-out and setting: next, `Cn1nc(C(F)(F)C(F)(F)F)c(C(F)(F)F)c1C(=O)Nc1ccc(Cl)c(C(=O)O)c1` [Ik-2, 2-Chloro-5-({[1-methyl-3-(pentafluoroethyl)-4-(trifluoromethyl)-1H-pyrazol-5-yl]carbonyl}amino)benzoic acid]: 3.22.

The series is the same for the next values; noted with them: HPLC phase inversion (reversed-phase) C18 column, HPLC, method a); read-out: logP.
With `Cn1nc(C(F)(F)C(F)(F)F)c(C(F)(F)F)c1C(=O)Nc1ccc(Cl)c(C(=O)O)c1` [Ik-2, 2-Chloro-5-({[1-methyl-3-(pentafluoroethyl)-4-(trifluoromethyl)-1H-pyrazol-5-yl]carbonyl}amino)benzoic acid], the chromatographic logP is 3.22.
